Square brackets hold non-standard residues; d marks the D form. Peptide text beside a SMILES is read from it. hArg = N=C(N)NCCCC[C@H](N)C(=O)O; Aib = CC(C)(N)C(=O)O
Key:
[1] = molecular target: T1, wild-type human P1R (hP1R-WT) (Homo sapiens, UniProt Q03431); assay: cAMP stimulation in COS-7 cells expressing hP1R-WT; type: cell-based; conditions: for EC50 / cAMP EMax(obs.): hP1R-WT; for cAMP EMax(obs.): basal 10.3 ± 1.1, asterisk = plateau not attained
T1 construct: expressed in transfected cells; host or cells: COS-7 (transient, FuGENE 6)
T1 sequence (Q03431 27-593): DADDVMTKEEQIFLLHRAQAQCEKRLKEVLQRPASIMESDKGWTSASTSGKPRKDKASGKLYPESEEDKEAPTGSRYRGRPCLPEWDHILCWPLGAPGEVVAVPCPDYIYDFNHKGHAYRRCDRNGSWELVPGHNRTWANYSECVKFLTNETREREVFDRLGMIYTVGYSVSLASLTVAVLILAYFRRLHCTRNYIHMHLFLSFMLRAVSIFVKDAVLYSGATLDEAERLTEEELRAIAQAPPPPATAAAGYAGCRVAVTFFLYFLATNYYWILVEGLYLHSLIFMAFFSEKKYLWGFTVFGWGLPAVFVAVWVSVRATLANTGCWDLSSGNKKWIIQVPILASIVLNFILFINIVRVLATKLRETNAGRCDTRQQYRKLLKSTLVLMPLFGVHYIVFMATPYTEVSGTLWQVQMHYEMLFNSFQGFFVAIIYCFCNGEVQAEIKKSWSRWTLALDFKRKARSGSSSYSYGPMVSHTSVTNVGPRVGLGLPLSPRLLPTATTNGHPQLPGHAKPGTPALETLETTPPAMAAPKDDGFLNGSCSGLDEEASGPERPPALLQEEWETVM
Method: (§1) Cell Culture. The cell line HKRK-B28 (Takasu, H., et al., J. Bone Miner. Res. 14:11-20 (1999)) was derived from the porcine kidney cell line, LLC-PK1 by stable transfection with plasmid DNA encoding the human P1R and expresses ˜280,000 receptors per cell. These cells, as well as COS-7 cells and SaOS-2-B10 cells, were cultured at […] in T-75 flasks ([…]) in Dulbecco's modified Eagle's medium (DMEM) supplemented with fetal bovine serum (10%), penicillin G (20 units/ml), streptomycin sulfate (20 μg/ml) and amphotericin B (0.05 μg/ml) in a humidified atmosphere containing 5% CO2. Stock solutions of EGTA/trypsin and antibiotics were from GIBCO; fetal bovine serum was from Hyclone Laboratories (Logan, Utah). COS-7 cells sub-cultured in 24-well plates were transfected with plasmid DNA (200 ng per well) encoding the wild-type human P1R or truncated human P1R deleted for residues (24-181) (Shimizu, M., et al., J. Biol. Chem. 275:21836-21843 (2000)) that was purified by cesium chloride/ethidium bromide density gradient centrifugation, and FuGENE 6 transfection reagent (Roche Indianapolis Ind.) according to the manufacturer's recommended procedure. All cells, in 24-well plates, were treated with fresh media and shifted to 33° C. for 12 to 24 h prior to assay.
(§2) cAMP Stimulation. Stimulation of cells with peptide analogs was performed in 24-well plates. Cells were rinsed with 0.5 mL of binding buffer (50 mM Tris-HCI, […], 5 mM KCl, 2 mM CaCl2, 5% heat-inactivated horse serum, 0.5% fetal bovine serum, adjusted to pH 7.5 with HCl) and treated with 200 μL of cAMP assay buffer (Delbecco's modified Eagle's medium containing 2 mM 3-isobutyl-1-methylxanthine, 1 mg/mL bovine serum albumin, 35 mM Hepes-NaOH, pH 7.4) and 100 μL of binding buffer containing varying amounts of peptide analog (final volume=300 μL). The medium was removed after incubation for 30 to 60 minutes at room temperature, and the cells were frozen on dry ice, lysed with 0.5 mL 50 mM HCl, and refrozen ([…]). The cAMP content of the diluted lysate was determined by radioimmunoassay. The EC50 response values were calculated using nonlinear regression (see below).
(§3) Data Calculation. Calculations were performed using Microsoft® Excel. Nonlinear regression analyses of binding and cAMP dose-response data were performed using the four-parameter equation: yp=Min+[(Max−Min)/(1+(IC50/x)^slope)]. The Excel Solver function was utilized for parameter optimization, as described previously (Carter, P. H., et al., Endocrinology 140: 4972-4981 (1999); Bowen, W. P., and Jerman, J. C., Trends in Pharmacol. Sci. 16: 413-417 (1995)). Differences between paired data sets were statistically evaluated using a one-tailed Student's t-test, assuming unequal variances for the two sets.

[2] = molecular target: T2, P1R-delNt, truncated human P1R deleted for residues (24-181) (Homo sapiens, UniProt Q03431); assay: cAMP stimulation in COS-7 cells expressing hP1R-delNt; type: cell-based; conditions: for EC50 / cAMP EMax(obs.): hP1R-delNT; for cAMP EMax(obs.): basal 9.5 ± 1.3, asterisk = plateau not attained
T2 construct: expressed in transfected cells; host or cells: COS-7 (transient, FuGENE 6)
T2 sequence (Q03431 with tags, fused parts or gaps limits assumed): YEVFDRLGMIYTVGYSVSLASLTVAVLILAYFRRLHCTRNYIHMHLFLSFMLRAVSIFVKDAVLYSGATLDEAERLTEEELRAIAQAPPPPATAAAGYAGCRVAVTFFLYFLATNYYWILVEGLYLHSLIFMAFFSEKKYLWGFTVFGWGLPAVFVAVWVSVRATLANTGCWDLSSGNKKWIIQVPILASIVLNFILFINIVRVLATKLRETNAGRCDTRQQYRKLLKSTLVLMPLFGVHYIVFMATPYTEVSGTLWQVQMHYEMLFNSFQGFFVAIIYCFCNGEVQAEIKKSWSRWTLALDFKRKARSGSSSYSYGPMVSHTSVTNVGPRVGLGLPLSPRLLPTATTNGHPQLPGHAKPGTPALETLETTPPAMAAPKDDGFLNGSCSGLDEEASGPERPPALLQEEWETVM
Method: as §1, §2, §3
The possibility that the activity-enhancing effects of the Aib substitutions at positions 1 and 3 were mediated through the juxtamembrane (J) region of the receptor was investigated in COS-7 cells transiently transfected with P1R-delNt. P1R-delNt was a truncated P1R that lacked most of the amino-terminal extracellular domain.

Compound | cAMP EMax ([1]; P1R-WT) [picomole/well] | EC50 [1] [nM] | cAMP EMax(obs.) [1] [pmole/well] | cAMP potency, fold weaker on P1R-delNt than P1R-WT [2] [fold] | EC50 [2] [nM] | cAMP EMax(obs.) [2] [pmole/well] | cAMP EMax ([2]; P1R-delNt) [picomole/well] | cAMP potency, fold more potent than [M]PTH(1-14) ([2]; P1R-delNt) [fold]
CCCC[C@H](NC(=O)[C@H](CCCNC(=N)N)NC(=O)[C@H](CCC(=O)O)NC(=O)[C@@H](NC(=O)[C@H](CO)NC(=O)[C@H](C)NC(=O)[C@H](CC(C)C)NC(=O)[C@H](Cc1c[nH]cn1)NC(=O)[C@H](CCCCN)NC(=O)CNC(=O)[C@H](CC(C)C)NC(=O)[C@H](CC(N)=O)NC(=O)[C@H](Cc1c[nH]cn1)NC(=O)[C@H](CCCC)NC(=O)[C@H](CC(C)C)NC(=O)[C@H](CCC(N)=O)NC(=O)[C@@H](NC(=O)[C@H](CCC(=O)O)NC(=O)[C@H](CO)NC(=O)[C@@H](NC(=O)[C@H](C)N)C(C)C)[C@@H](C)CC)C(C)C)C(=O)N[C@@H](CCC(N)=O)C(=O)N[C@@H](Cc1c[nH]c2ccccc12)C(=O)N[C@@H](CC(C)C)C(=O)N[C@@H](CCCNC(=N)N)C(=O)N[C@@H](CCCCN)C(=O)N[C@@H](CCCCN)C(=O)N[C@@H](CC(C)C)C(=O)N[C@@H](CCC(N)=O)C(=O)N[C@@H](CC(=O)O)C(=O)N[C@H](C(=O)N[C@@H](Cc1c[nH]cn1)C(=O)N[C@@H](CC(N)=O)C(=O)N[C@@H](Cc1ccc(O)cc1)C(N)=O)C(C)C [PTH(1-34), [Nle^8,21, Tyr^34]PTH(1-34)amide, reference compound] | 240±50 | 1.4 ± 0.7 | 240 ± 50 | ~500 | 680 ± 110 | 220 ± 30 |  | 
CC[C@H](C)[C@H](NC(=O)[C@H](CCC(=O)O)NC(=O)C(C)(C)NC(=O)[C@@H](NC(=O)C(C)(C)N)C(C)C)C(=O)N[C@@H](CCC(N)=O)C(=O)N[C@@H](CC(C)C)C(=O)N[C@@H](CCSC)C(=O)N[C@@H](Cc1c[nH]cn1)C(=O)N[C@@H](CCC(N)=O)C(N)=O [[Aib^1,3,M]PTH(1-10), [Aib^1,3,Gln^10]PTH(1-10)] (H-[Aib]V[Aib]EIQLMHQ-NH2) |  |  | 120 ± 10 |  |  | 84 ± 4 |  | 
CC[C@H](C)[C@H](NC(=O)[C@H](CCC(=O)O)NC(=O)C(C)(C)NC(=O)[C@@H](NC(=O)C(C)(C)N)C(C)C)C(=O)N[C@@H](CCC(N)=O)C(=O)N[C@@H](CC(C)C)C(=O)N[C@@H](CCSC)C(=O)N[C@@H](Cc1c[nH]cn1)C(=O)N[C@@H](CCC(N)=O)C(=O)N[C@@H](CCCCNC(=N)N)C(N)=O [[Aib^1,3,M]PTH(1-11), AibValAibGluIleGlnLeuMetHisGlnHar] (H-[Aib]V[Aib]EIQLMHQ[hArg]-NH2) |  |  | 190 ± 40 |  |  | 220 ± 20 |  | 
CC[C@H](C)[C@H](NC(=O)[C@H](CCC(=O)O)NC(=O)C(C)(C)NC(=O)[C@@H](NC(=O)C(C)(C)N)C(C)C)C(=O)N[C@@H](CCC(N)=O)C(=O)N[C@@H](CC(C)C)C(=O)N[C@@H](CCSC)C(=O)N[C@@H](Cc1c[nH]cn1)C(=O)N[C@@H](CCC(N)=O)C(=O)N[C@@H](CCCCNC(=N)N)C(=O)N[C@@H](C)C(=O)N[C@@H](CCCCN)C(=O)N[C@@H](Cc1c[nH]c2ccccc12)C(N)=O [[Aib^1,3,M]PTH(1-14), AibValAibGluIleGlnLeuMetHisGlnHarAlaLysTrp] (H-[Aib]V[Aib]EIQLMHQ[hArg]AKW-NH2) |  | 1.2 ± 0.6 | 240 ± 40 |  | 0.73 ± 0.16 | 250 ± 20 | 250±20 | 55
CC[C@H](C)[C@H](NC(=O)[C@H](CCC(=O)O)NC(=O)[C@H](C)NC(=O)[C@@H](NC(=O)[C@H](C)N)C(C)C)C(=O)N[C@@H](CCC(N)=O)C(=O)N[C@@H](CC(C)C)C(=O)N[C@@H](CCSC)C(=O)N[C@@H](Cc1c[nH]cn1)C(=O)N[C@@H](CCC(N)=O)C(=O)N[C@@H](CCCCNC(=N)N)C(=O)N[C@@H](C)C(=O)N[C@@H](CCCCN)C(=O)N[C@@H](Cc1c[nH]c2ccccc12)C(N)=O [[M]PTH(1-14), [Ala^3,12,Gln^10,Har^11,Trp^14]PTH(1-14)amide, reference compound] (H-AVAEIQLMHQ[hArg]AKW-NH2) |  |  | 240 ± 50 |  |  | 220 ± 20 |  | 
H-AVSEIQLMHNLGKH-NH2 [PTH(1-14), reference compound] |  |  | 140 ± 30 |  |  | 110 ± 10 |  | 

Reference: patent US7572765B2, “Conformationally constrained parathyroid hormone (PTH) analogs” (The General Hospital Corporation, priority 2001, dated 2009)
